Results taken from patent publication US20190249215A1, “Three-Dimensional Cell-Derived Extracellular Matrix/Gel Systems” (Institute For Cancer Research d/b/a The Research Institute …, priority 2018, published 2019).

Assays:
[1] = test system: RFP-expressing KRAS cell spheroids; experiment: Spheroid spreading assay; format: cell-based, human; details: KRAS spheroids within CAF-CDMs produced onto patho stiffness gels; 20 μM U0126 overnight
Method: Red fluorescence protein (RFP)-expressing KRAS cells generated in our laboratory were trypsinized and suspended in spheroid formation media (Irvine Scientific, Santa Ana, Calif., Catalog ID: 91130) and allowed to incubate overnight. Thirty μl drops containing 2.5×10^3 cells were carefully placed on a lid of a sterile petri dish. The dish was filled with 5 mL media and the lid with the “hanging drops” was carefully placed, drops face down, and incubated overnight. Spheroids were removed from the lids, one by one, placed onto the diverse substrates or CDMs, and allowed to adhere for 2 hours. Subsequently, the spheroid formation media was diluted with regular pancreatic epithelial growth media (see above). Following a 48-hour incubation, cell spreading was visualized using an inverted fluorescence microscope equipped with epifluorescent image acquisition capabilities. Data were normalized to the initial size of each spheroid at time 0 hour. When indicated, spheroids were treated overnight with 20 μM of the MEK1/2 inhibitor U0126 from Calbiochem or DMSO, while siRNA transfection. The images were processed using MetaMorph 7.8.1.0 software (Molecular Devices, Downingtown, Pa.). A minimum of 5 spheres per condition were analyzed in at least three independent experiments.

pERK1/2 = details: KRAS cells within CAF-CDMs produced onto patho stiffness gels; 20 μM U0126 overnight; fractionated cell lysates
Method: (§1) At the end of the experiments, KRAS cells were lysed with cell lysis buffer from Cell Signaling Technology (Danvers, Mass.) supplemented with Pierce™ Phosphatase and protease Inhibitor Mini Tablets (Cat Nos. 88667 and 88665, respectively) from Thermo Fisher Scientific (Waltham, Mass.). Proteins were SDS-PAGE dissolved and transferred to PVDF membranes. Blots were incubated with the following primary antibodies: Rabbit anti-human Phospho-p44/42 ERK1/2 (Thr^202/Tyr^204)(Cat No. 4370) and rabbit anti-human total-p44/42 ERK1/2 (Cat No. 9102) obtained from Cell Signaling Technology (Danvers, Mass.). Anti-phospho-p90RSK1 (Ser^380) (Cat No. 04-418) and anti-human glyceraldehyde 3-phosphate dehydrogenase (GAPDH) (Cat No. MAB374) obtained from Millipore (Billerica, Mass.). Horseradish peroxidase-conjugated, anti-species matched, secondary antibodies were obtained from Sigma Aldrich (St. Louis, Mo.). Protein bands were visualized using the Protein Simple FluorChemE System, (San Jose, Calif.). Nuclear levels of pERK1/2 were assessed using the Subcellular Protein Fractionation Kit (Thermo Scientific, Waltham, Mass.). Isolation of nuclear versus whole cell fractions was carried out according to the manufacturer's instructions.

phospho-p90RSK = details: KRAS cells within CAF-CDMs produced onto patho gels; 20 μM U0126 overnight
Method: as §1

SMILES: N#CC(=C(N)Sc1ccccc1N)C(C#N)=C(N)Sc1ccccc1N [U0126, 1,4-diamino-2,3-dicyano-1,4-bis[2-aminophenylthio] butadiene]
- KRAS spheroid area spread [1]: significant reduction in KRAS spheroid spread
- nuclear levels of pERK1/2 (pERK1/2): significant loss of pERK1/2 at nuclear locations
- phosphorylation levels of p90 ribosomal S6 kinase (pho-p90RSK) (phospho-p90RSK): downregulated
